Reference: patent publication US6638957B1, “Use of compounds with a nitrogen-oxygen heterocycle” (Jomaa Pharmaka GmbH, priority 1999, dated 2003)
Values after ≈ are worked out from the molar mass of the structure shown. Read-outs that look alike come from different tables or passages of the source.

Tests used:
[1] = target: T1, DOXP reductoisomerase of Escherichia coli (UniProt P56139); assay: inhibition of recombinant DOXP reductoisomerase (NADPH oxidation); type: biochemical; conditions: 1 mM DOXP, 0,3 mM NADPH, pH 7,5; read-out: IC50(nM) of DOXP reductoisomerase from Helicobacter pilori
T1 sequence (P56139 1-368): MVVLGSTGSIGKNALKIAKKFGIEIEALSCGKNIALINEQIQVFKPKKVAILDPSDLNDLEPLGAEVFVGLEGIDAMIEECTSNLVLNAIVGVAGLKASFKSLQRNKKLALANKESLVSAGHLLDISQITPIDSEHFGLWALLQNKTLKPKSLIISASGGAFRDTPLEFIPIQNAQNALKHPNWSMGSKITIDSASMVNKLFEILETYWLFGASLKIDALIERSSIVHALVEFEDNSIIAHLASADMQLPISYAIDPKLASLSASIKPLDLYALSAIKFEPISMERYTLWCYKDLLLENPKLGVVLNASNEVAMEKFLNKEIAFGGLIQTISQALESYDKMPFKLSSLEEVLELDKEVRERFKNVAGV

Plasmodium falciparum = assay: antimalaria activity on in vitro cultures, [3H]-hypoxanthine incorporation; type: cell-based; conditions: 72 h, inhibition of [3H]-hypoxanthine incorporation, 48 + 24 hours, read-out: IC50(nM) of malaria culture (Plasmodium falciparum)
Protocol: The antimalaria activity of the compounds listed on page 9 was determined on in vitro cultures of the malaria pathogen Plasmodium falciparum. The depressions of a 96-well microtitre plate were charged with in each case 200 μl of an asynchroneous Plasmodium falciparum culture at a parasitaemia of 0,4% and haematokrit of 2%. A serial dilution series of the compounds in triple steps between concentrations of 100 to 0,14 μmol 1^−1 was then prepared. The plates were incubated at 37° C., 3% CO2 and 5% O2 over a period of 48 hours. 30 μl medium supplemented with 27 μCi ml^−1 [^3H]-hypoxanthine were then added to each well. After incubation for 24 hours the parasites were harvested by filtration on a glass fibre filter and the radioactivity which had been incorporated was measured. The inhibition of the growth of parasites was measured as the percentage inhibition of the incorporation of tritium. Inhibition of the growth of the parasites has been determined as percentage inhibition of incorporation of tritium based on a comparison without the substance. The half-maximum inhibitory concentration (IC50) of the substance was determined by extrapolation of the values.

Pseudomonas aeruginosa = assay: antibacterial activity, minimum inhibition concentration in liquid culture; type: cell-based; conditions: read-out: MIC(nM) of bacteria culture (Pseudomonas aeruginosa)
Protocol: A dilution series comprising the concentrations 500, 100, 50, 10 and 0 μmol 1^−1 of the individual compounds in LB medium is introduced into 5 culture microtubes in a volume of 0,5 ml. The tubes were inoculated with 10 μl of an overnight culture of E. coli K12 and shaken overnight at 37° C. The growth of the bacteria was assessed on the basis of the turbidity of the medium. The minimum concentration causing inhibition of bacterial growth was determined (minimum inhibition concentration MIC)
The antibacterial activity of P. aeruginosa was determined in the same manner.

Echinochloa = assay: herbicidal activity, Hydro Vorauflauf; type: in vivo; conditions: 4000 Gramm/Hektar
Protocol: (§1) The determination of herbicidal activity is performed according to standard procedure. Again the compounds listed on page 9 are tested.

Lepidium = assay: herbicidal activity, Hydro Vorauflauf; type: in vivo; conditions: 4000 Gramm/Hektar
Protocol: as §1

Reis = assay: herbicidal activity, Hydro Vorauflauf; type: in vivo; conditions: 4000 Gramm/Hektar
Protocol: as §1

Solanum = assay: herbicidal activity, Hydro Vorauflauf; type: in vivo; conditions: 4000 Gramm/Hektar
Protocol: as §1

Abutilon theophrasti [2] = assay: herbicidal activity, Erde Vorauflauf; type: in vivo; conditions: 2000 Gramm/Hektar
Protocol: as §1

Alopecurus myosuroides [3] = assay: herbicidal activity, Erde Vorauflauf; type: in vivo; conditions: 2000 Gramm/Hektar
Protocol: as §1

Amaranthus retroflexus [4] = assay: herbicidal activity, Erde Vorauflauf; type: in vivo; conditions: 2000 Gramm/Hektar
Protocol: as §1

Avena fatua [5] = assay: herbicidal activity, Erde Vorauflauf; type: in vivo; conditions: 2000 Gramm/Hektar
Protocol: as §1

Beta vulgaris [6] = assay: herbicidal activity, Erde Vorauflauf; type: in vivo; conditions: 2000 Gramm/Hektar
Protocol: as §1

Cyperus esculentus [7] = assay: herbicidal activity, Erde Vorauflauf; type: in vivo; conditions: 2000 Gramm/Hektar
Protocol: as §1

Galium aperine [8] = assay: herbicidal activity, Erde Vorauflauf; type: in vivo; conditions: 2000 Gramm/Hektar
Protocol: as §1

Setaria viridis [9] = assay: herbicidal activity, Erde Vorauflauf; type: in vivo; conditions: 2000 Gramm/Hektar
Protocol: as §1

Sinapis arvensis [10] = assay: herbicidal activity, Erde Vorauflauf; type: in vivo; conditions: Mutarda arvensis; 2000 Gramm/Hektar
Protocol: as §1

Xanthium strumarium [11] = assay: herbicidal activity, Erde Vorauflauf; type: in vivo; conditions: 2000 Gramm/Hektar
Protocol: as §1

Zea mays [12] = assay: herbicidal activity, Erde Vorauflauf; type: in vivo; conditions: 2000 Gramm/Hektar
Protocol: as §1

Abutilon theophrasti [13] = assay: herbicidal activity, Erde Nachauflauf; type: in vivo; conditions: 2000 Gramm/Hektar
Protocol: as §1

Alopecurus myosuroides [14] = assay: herbicidal activity, Erde Nachauflauf; type: in vivo; conditions: 2000 Gramm/Hektar
Protocol: as §1

Amaranthus retroflexus [15] = assay: herbicidal activity, Erde Nachauflauf; type: in vivo; conditions: 2000 Gramm/Hektar
Protocol: as §1

Avena fatua [16] = assay: herbicidal activity, Erde Nachauflauf; type: in vivo; conditions: 2000 Gramm/Hektar
Protocol: as §1

Beta vulgaris [17] = assay: herbicidal activity, Erde Nachauflauf; type: in vivo; conditions: 2000 Gramm/Hektar
Protocol: as §1

Cyperus esculentus [18] = assay: herbicidal activity, Erde Nachauflauf; type: in vivo; conditions: 2000 Gramm/Hektar
Protocol: as §1

Galium aperine [19] = assay: herbicidal activity, Erde Nachauflauf; type: in vivo; conditions: 2000 Gramm/Hektar
Protocol: as §1

Setaria viridis [20] = assay: herbicidal activity, Erde Nachauflauf; type: in vivo; conditions: 2000 Gramm/Hektar
Protocol: as §1

Sinapis arvensis [21] = assay: herbicidal activity, Erde Nachauflauf; type: in vivo; conditions: Mutarda arvensis; 2000 Gramm/Hektar
Protocol: as §1

Xanthium strumarium [22] = assay: herbicidal activity, Erde Nachauflauf; type: in vivo; conditions: 2000 Gramm/Hektar
Protocol: as §1

Zea mays [23] = assay: herbicidal activity, Erde Nachauflauf; type: in vivo; conditions: 2000 Gramm/Hektar
Protocol: as §1

Row | Structure (SMILES) | IC50 [1] | IC50 (Plasmodium falciparum) | pest or weed control at 4000 g/ha (Echinochloa) | pest or weed control at 4000 g/ha (Lepidium) | pest or weed control at 4000 g/ha (Reis) | pest or weed control at 4000 g/ha (Solanum) | pest or weed control at 2000 g/ha (Abutilon theophrasti [2]) | pest or weed control at 2000 g/ha (Alopecurus myosuroides [3]) | pest or weed control at 2000 g/ha (Amaranthus retroflexus [4]) | pest or weed control at 2000 g/ha (Avena fatua [5]) | plant injury at 2000 g/ha (Beta vulgaris [6]) | pest or weed control at 2000 g/ha (Cyperus esculentus [7]) | pest or weed control at 2000 g/ha (Galium aperine [8]) | pest or weed control at 2000 g/ha (Setaria viridis [9]) | pest or weed control at 2000 g/ha (Sinapis arvensis [10]) | pest or weed control at 2000 g/ha (Xanthium strumarium [11]) | plant injury at 2000 g/ha (Zea mays [12]) | pest or weed control at 2000 g/ha (Abutilon theophrasti [13]) | pest or weed control at 2000 g/ha (Alopecurus myosuroides [14]) | pest or weed control at 2000 g/ha (Amaranthus retroflexus [15]) | also measured
1 | CC1CON(COCP(C)(=O)O)C1=O (stereo not drawn) [Compound 3] | 125 nM | 1700 nM | 40% | 30% | 40% | 0% | 0% | 60% | 0% | 0% | 30% | 0% | 0% | 0% | 30% | 0% | 0% | 60% | 60% | 60% | MIC (Pseudomonas aeruginosa): 2200 nM (≈ 0.491 µg/mL); pest or weed control at 2000 g/ha (Avena fatua [16]): 50%; plant injury at 2000 g/ha (Beta vulgaris [17]): 90%; pest or weed control at 2000 g/ha (Cyperus esculentus [18]): 0%; pest or weed control at 2000 g/ha (Galium aperine [19]): 40%; pest or weed control at 2000 g/ha (Setaria viridis [20]): 70%; pest or weed control at 2000 g/ha (Sinapis arvensis [21]): 70%; pest or weed control at 2000 g/ha (Xanthium strumarium [22]): 60%; plant injury at 2000 g/ha (Zea mays [23]): 70%
2 | CC(C)N(C)CCCN1OCCC1=O [Compound 7] | 18 nM | 400 nM | 40% | 0% | 30% | 30% | 0% | 30% | 20% | 30% | 70% | 0% | 0% | 0% | 30% | 0% | 30% | 50% | 80% | 50% | MIC (Pseudomonas aeruginosa; LB medium, overnight at 37° C., turbidity): 9000 nM (≈ 1.8 µg/mL); pest or weed control at 2000 g/ha (Avena fatua [16]): 80%; plant injury at 2000 g/ha (Beta vulgaris [17]): 70%; pest or weed control at 2000 g/ha (Cyperus esculentus [18]): 0%; pest or weed control at 2000 g/ha (Galium aperine [19]): 95%; pest or weed control at 2000 g/ha (Setaria viridis [20]): 90%; pest or weed control at 2000 g/ha (Sinapis arvensis [21]): 80%; pest or weed control at 2000 g/ha (Xanthium strumarium [22]): 90%; plant injury at 2000 g/ha (Zea mays [23]): 70%
3 | CP(=O)(O)CCCN1OCCCC1=O [Compound 4] | 78 nM | 9200 nM | 70% | 30% | 30% | 30% | 0% | 0% | 0% | 60% | 60% | 0% | 0% | 0% | 70% | 0% | 30% | 50% | 70% | 40% | MIC (Pseudomonas aeruginosa): 7000 nM (≈ 1.55 µg/mL); pest or weed control at 2000 g/ha (Avena fatua [16]): 40%; plant injury at 2000 g/ha (Beta vulgaris [17]): 50%; pest or weed control at 2000 g/ha (Cyperus esculentus [18]): 0%; pest or weed control at 2000 g/ha (Galium aperine [19]): 70%; pest or weed control at 2000 g/ha (Setaria viridis [20]): 90%; pest or weed control at 2000 g/ha (Sinapis arvensis [21]): 60%; pest or weed control at 2000 g/ha (Xanthium strumarium [22]): 90%; plant injury at 2000 g/ha (Zea mays [23]): 70%
